According to patent US20250114345A1, “COMPOUNDS AND COMPOSITIONS AS CBP/P300 DEGRADERS AND USES THEREOF” (Oncopia Therapeutics, Inc. d/b/a/ SK Life Science Labs, priority 2023, published 2025):

Assays:
CBP = target: T1, CBP (Homo sapiens, UniProt Q92793); assay: CBP degradation, HiBit technology in A549 CBP HiBit cells (24 h); type: cell-based; conditions: 24 hrs post treatment
T1 construct: host or cells: A549 CBP HiBit cells
Procedure, shortened: (§1)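 HiBiT knock-in A549 cells received compound in serial dilution at 37 °C under 5% CO2. Remaining tagged protein was quantified by lytic HiBiT luminescence after 10 min shaking at room temperature, yielding potency and maximal degradation.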

p300 = target: T2, p300 (Homo sapiens, UniProt Q09472); assay: P300 degradation, HiBit technology in A549 P300 HiBit cells (2 h); type: cell-based; conditions: 2 hrs post treatment; for Dmax: A549, A549 P300 HiBit cells; for DC50: A549 P300 HiBit cells
T2 construct: host or cells: A549 P300 HiBit cells
Procedure, shortened: as §1

T1 sequence (Q92793 whole entry): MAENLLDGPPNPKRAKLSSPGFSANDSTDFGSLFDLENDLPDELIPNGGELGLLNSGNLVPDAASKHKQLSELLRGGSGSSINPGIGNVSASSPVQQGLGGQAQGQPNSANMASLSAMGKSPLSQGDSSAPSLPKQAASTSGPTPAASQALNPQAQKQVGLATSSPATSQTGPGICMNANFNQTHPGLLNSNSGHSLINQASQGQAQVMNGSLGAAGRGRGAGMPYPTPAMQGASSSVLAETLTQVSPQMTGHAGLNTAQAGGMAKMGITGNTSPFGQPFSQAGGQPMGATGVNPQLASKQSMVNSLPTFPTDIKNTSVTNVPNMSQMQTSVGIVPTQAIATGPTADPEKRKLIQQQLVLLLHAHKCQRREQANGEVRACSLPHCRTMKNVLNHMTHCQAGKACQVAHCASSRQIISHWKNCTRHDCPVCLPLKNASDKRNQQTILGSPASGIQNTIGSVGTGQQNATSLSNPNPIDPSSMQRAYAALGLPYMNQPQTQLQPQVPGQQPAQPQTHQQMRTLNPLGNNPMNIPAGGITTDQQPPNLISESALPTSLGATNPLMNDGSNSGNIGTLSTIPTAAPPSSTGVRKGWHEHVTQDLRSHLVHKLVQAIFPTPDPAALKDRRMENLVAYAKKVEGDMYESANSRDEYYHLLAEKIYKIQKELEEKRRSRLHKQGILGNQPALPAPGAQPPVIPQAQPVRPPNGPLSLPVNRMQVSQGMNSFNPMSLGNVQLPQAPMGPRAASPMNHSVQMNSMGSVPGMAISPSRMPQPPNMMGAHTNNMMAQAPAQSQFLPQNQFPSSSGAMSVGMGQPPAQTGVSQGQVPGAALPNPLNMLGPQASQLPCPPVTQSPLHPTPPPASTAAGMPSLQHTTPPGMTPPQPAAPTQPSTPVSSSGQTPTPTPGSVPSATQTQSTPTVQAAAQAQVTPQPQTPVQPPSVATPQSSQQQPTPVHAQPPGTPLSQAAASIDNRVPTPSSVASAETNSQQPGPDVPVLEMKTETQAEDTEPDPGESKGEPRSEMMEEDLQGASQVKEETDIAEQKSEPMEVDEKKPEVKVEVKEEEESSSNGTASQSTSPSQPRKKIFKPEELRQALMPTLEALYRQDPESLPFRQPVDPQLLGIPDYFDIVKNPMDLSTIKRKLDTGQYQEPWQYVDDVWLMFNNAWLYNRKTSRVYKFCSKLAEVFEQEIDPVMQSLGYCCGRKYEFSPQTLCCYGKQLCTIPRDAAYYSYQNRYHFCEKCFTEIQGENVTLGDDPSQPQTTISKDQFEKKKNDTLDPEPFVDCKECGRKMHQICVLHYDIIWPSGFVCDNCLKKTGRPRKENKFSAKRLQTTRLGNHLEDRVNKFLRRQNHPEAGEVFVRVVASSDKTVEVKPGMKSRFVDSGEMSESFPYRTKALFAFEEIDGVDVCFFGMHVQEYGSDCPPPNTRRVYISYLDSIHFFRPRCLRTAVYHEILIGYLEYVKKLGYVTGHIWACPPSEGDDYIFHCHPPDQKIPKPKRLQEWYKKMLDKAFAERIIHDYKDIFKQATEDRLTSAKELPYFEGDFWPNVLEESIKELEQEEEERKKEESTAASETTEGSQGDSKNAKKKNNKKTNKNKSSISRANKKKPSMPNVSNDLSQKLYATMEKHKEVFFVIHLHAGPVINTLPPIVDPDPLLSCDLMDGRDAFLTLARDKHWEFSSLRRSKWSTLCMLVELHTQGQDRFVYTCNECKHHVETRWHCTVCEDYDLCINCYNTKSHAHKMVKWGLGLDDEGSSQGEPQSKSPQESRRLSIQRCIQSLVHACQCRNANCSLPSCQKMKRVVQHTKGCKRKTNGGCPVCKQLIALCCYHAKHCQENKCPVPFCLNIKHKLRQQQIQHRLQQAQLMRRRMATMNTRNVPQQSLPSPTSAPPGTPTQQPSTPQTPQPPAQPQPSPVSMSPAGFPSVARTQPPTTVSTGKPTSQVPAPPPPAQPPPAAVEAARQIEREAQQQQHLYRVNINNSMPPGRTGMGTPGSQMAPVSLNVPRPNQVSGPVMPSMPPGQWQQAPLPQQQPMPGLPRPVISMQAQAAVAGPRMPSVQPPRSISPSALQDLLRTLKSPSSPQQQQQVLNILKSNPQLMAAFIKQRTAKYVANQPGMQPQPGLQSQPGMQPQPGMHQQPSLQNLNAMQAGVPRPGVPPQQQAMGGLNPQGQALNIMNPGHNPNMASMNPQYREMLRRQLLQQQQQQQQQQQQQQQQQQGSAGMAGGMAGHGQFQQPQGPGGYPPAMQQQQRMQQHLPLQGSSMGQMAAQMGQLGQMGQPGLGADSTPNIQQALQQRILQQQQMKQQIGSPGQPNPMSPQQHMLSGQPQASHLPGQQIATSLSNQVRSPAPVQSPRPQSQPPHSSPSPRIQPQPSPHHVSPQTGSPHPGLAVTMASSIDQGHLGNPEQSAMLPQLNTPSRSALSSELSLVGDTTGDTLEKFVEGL
T2 sequence (Q09472 whole entry): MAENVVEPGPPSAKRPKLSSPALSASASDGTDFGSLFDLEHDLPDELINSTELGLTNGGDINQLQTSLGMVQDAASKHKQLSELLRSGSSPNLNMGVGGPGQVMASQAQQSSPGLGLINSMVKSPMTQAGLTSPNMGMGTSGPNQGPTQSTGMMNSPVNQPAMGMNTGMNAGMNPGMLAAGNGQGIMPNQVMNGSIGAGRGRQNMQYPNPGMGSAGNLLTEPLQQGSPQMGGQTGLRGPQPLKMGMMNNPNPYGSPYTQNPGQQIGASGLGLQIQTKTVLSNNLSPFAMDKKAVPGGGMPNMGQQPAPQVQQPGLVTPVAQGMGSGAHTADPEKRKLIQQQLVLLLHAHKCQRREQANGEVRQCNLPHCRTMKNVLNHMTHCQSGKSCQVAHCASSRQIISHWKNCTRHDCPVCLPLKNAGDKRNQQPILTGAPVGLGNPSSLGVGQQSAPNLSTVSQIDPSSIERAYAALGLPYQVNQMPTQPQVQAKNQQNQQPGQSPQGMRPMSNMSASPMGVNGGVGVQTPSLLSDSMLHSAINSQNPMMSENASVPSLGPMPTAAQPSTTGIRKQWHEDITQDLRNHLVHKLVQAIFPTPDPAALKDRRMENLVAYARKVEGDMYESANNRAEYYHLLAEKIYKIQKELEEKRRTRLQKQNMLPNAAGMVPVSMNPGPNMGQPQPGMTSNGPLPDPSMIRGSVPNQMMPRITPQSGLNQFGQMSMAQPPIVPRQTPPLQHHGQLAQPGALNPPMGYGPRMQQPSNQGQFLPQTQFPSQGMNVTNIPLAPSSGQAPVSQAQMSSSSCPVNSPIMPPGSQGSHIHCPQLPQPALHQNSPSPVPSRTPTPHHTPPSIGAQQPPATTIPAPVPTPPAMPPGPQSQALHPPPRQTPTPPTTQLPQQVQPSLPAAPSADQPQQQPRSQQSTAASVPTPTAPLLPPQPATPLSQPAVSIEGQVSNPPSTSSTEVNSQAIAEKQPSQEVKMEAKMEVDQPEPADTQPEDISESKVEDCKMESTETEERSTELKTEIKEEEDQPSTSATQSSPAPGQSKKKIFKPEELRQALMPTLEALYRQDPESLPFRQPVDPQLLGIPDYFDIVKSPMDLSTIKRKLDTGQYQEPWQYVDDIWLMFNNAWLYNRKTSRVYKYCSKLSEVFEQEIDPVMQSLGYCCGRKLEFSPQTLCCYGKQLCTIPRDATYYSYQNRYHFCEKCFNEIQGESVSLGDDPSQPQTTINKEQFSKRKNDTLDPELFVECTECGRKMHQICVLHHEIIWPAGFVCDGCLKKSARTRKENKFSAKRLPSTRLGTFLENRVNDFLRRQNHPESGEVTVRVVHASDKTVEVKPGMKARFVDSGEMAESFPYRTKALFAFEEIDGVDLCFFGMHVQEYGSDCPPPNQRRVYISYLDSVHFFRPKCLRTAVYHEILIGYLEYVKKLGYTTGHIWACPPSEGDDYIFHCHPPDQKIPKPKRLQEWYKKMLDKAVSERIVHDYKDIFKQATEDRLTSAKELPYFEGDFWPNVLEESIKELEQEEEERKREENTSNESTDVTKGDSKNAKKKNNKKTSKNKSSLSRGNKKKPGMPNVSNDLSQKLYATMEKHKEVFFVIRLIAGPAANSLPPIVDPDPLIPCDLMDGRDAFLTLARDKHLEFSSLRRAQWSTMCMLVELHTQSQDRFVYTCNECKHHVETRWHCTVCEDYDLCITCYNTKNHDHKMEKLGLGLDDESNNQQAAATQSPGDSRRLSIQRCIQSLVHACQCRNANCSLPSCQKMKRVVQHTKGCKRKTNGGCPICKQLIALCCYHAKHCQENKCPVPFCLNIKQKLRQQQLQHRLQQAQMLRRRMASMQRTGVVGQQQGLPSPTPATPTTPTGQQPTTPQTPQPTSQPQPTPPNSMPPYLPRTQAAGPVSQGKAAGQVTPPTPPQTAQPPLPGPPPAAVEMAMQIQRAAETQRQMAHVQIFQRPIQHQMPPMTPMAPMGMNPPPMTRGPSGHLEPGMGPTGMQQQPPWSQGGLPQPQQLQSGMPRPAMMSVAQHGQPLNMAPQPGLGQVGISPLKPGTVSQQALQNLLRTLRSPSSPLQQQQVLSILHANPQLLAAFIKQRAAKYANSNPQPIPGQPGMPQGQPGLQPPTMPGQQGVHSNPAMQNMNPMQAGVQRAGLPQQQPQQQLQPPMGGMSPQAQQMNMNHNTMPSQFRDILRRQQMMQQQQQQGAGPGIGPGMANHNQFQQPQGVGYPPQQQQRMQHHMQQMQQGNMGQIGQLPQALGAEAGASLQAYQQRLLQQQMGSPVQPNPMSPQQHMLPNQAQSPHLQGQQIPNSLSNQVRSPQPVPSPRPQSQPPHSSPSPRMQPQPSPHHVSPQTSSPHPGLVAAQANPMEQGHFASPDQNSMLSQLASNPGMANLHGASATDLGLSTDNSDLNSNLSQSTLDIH

Row | Structure (SMILES) | DC50 (CBP) | Dmax (CBP) | Dmax (p300) | DC50 (p300)
1 | Cc1cc2c(-c3cccc4cc(-c5ccc(C(=O)NCC#Cc6cc7c(C8CCC(=O)NC8=O)cccc7o6)nc5)ncc34)nc(N3CCOCC3)cc2n(C)c1=O (stereo not shown) [Example B74, 5-(8-(1,3-dimethyl-7-morpholino-2-oxo-1,2-dihydro-1,6-naphthyridin-5-yl)isoquinolin-3-yl)-N-(3-(4-(2,6-dioxopiperidin-3-yl)benzofuran-2-yl)prop-2-yn-1-yl)picolinamide] | > 1000 nM | < 20% | > 80% | 1 to 9.9 nM
2 | Cc1cc2c(N3CCCc4nc(-c5ccc(C(=O)NCC#Cc6ccc7occ(C8CCC(=O)NC8=O)c7c6)nc5)ncc43)cc(C3CCOCC3)nc2n(C)c1=O (stereo not shown) [Example B76, 5-(5-(6,8-dimethyl-7-oxo-2-(tetrahydro-2H-pyran-4-yl)-7,8-dihydro-1,8-naphthyridin-4-yl)-5,6,7,8-tetrahydropyrido[3,2-d]pyrimidin-2-yl)-N-(3-(3-(2,6-dioxopiperidin-3-yl)benzofuran-5-yl)prop-2-yn-1-yl)picolinamide] | 100 to 999 nM | < 20% | > 80% | 1 to 9.9 nM
3 | Cc1cc2c(N3CCOc4cc(-c5ccc(C(=O)NCC#Cc6ccc7occ(C8CCC(=O)NC8=O)c7c6)nc5)ncc43)cccc2n(C)c1=O (stereo not shown) [Example B77, 5-(4-(1,3-dimethyl-2-oxo-1,2-dihydroquinolin-5-yl)-3,4-dihydro-2H-pyrido[4,3-b][1,4]oxazin-7-yl)-N-(3-(3-(2,6-dioxopiperidin-3-yl)benzofuran-5-yl)prop-2-yn-1-yl)picolinamide] | > 1000 nM | < 20% | > 80% | 1 to 9.9 nM
4 | Cc1cc2c(N3CCCc4nc(-c5ccc(C(=O)NCC#Cc6cc7c(C8CCC(=O)NC8=O)cccc7s6)nc5)ncc43)cc(C3CCOCC3)cc2n(C)c1=O (stereo not shown) [Example B79, 5-(5-(1,3-dimethyl-2-oxo-7-(tetrahydro-2H-pyran-4-yl)-1,2-dihydroquinolin-5-yl)-5,6,7,8-tetrahydropyrido[3,2-d]pyrimidin-2-yl)-N-(3-(4-(2,6-dioxopiperidin-3-yl)benzo[b]thiophen-2-yl)prop-2-yn-1-yl)picolinamide] | > 1000 nM | < 20% | > 80% | 1 to 9.9 nM
5 | Cc1cc2c(N3CCCc4nc(-c5ccc(C(=O)NCC#Cc6cc7c(C8CCC(=O)NC8=O)nccc7s6)nc5)ncc43)cc(C3CCOCC3)cc2n(C)c1=O (stereo not shown) [Example B81, 5-(5-(1,3-dimethyl-2-oxo-7-(tetrahydro-2H-pyran-4-yl)-1,2-dihydroquinolin-5-yl)-5,6,7,8-tetrahydropyrido[3,2-d]pyrimidin-2-yl)-N-(3-(4-(2,6-dioxopiperidin-3-yl)thieno[3,2-c]pyridin-2-yl)prop-2-yn-1-yl)picolinamide] | 10 to 99 nM | 40 to 59% | > 80% | 1 to 9.9 nM
6 | Cc1cc2c(N3CCCc4nc(-c5ccc(C(=O)NCC#Cc6cc7c(C8CCC(=O)NC8=O)cccc7o6)nc5)ncc43)cc(C3(F)CCOCC3)cc2n(C)c1=O (stereo not shown) [Example B82, N-(3-(4-(2,6-dioxopiperidin-3-yl)benzofuran-2-yl)prop-2-yn-1-yl)-5-(5-(7-(4-fluorotetrahydro-2H-pyran-4-yl)-1,3-dimethyl-2-oxo-1,2-dihydroquinolin-5-yl)-5,6,7,8-tetrahydropyrido [3,2-d]pyrimidin-2-yl)picolinamide] | > 1000 nM | < 20% | > 80% | 1 to 9.9 nM
7 | Cc1cc(-c2cc3c(cn2)N(c2cccc4c2cc(C)c(=O)n4C)CCO3)cnc1C(=O)NCC#Cc1ccc2occ(C3CCC(=O)NC3=O)c2c1 (stereo not shown) [Example B83, 5-(4-(1,3-dimethyl-2-oxo-1,2-dihydroquinolin-5-yl)-3,4-dihydro-2H-pyrido[4,3-b][1,4]oxazin-7-yl)-N-(3-(3-(2,6-dioxopiperidin-3-yl)benzofuran-5-yl)prop-2-yn-1-yl)-3-methylpicolinamide] | 100 to 999 nM | 40 to 59% | > 80% | 1 to 9.9 nM
8 | Cc1cc2c(N3CCCc4cc(-c5ccc(C(=O)NCC#Cc6cc7c(C8CCC(=O)NC8=O)nccc7o6)nc5)nnc43)cc(C3CCOCC3)cc2n(C)c1=O (stereo not shown) [Example B84, 5-(8-(1,3-dimethyl-2-oxo-7-(tetrahydro-2H-pyran-4-yl)-1,2-dihydroquinolin-5-yl)-5,6,7,8-tetrahydropyrido[2,3-c]pyridazin-3-yl)-N-(3-(4-(2,6-dioxopiperidin-3-yl)furo [3,2-c]pyridin-2-yl)prop-2-yn-1-yl) picolinamide] | 100 to 999 nM | < 20% | > 80% | < 1 nM
9 | Cc1cc2c(N3CCCc4nc(-c5cnc(C(=O)NCC#Cc6cc7c(C8CCC(=O)NC8=O)cccc7o6)cn5)ncc43)cc(C3CCOCC3)cc2n(C)c1=O (stereo not shown) [Example B87, 5-(5-(1,3-dimethyl-2-oxo-7-(tetrahydro-2H-pyran-4-yl)-1,2-dihydroquinolin-5-yl)-5,6,7,8-tetrahydropyrido[3,2-d]pyrimidin-2-yl)-N-(3-(4-(2,6-dioxopiperidin-3-yl)benzofuran-2-yl)prop-2-yn-1-yl)pyrazine-2-carboxamide] | > 1000 nM | < 20% | 60 to 79% | 1 to 9.9 nM
10 | Cc1cc2c(-c3cccc4cc(-c5ccc(C(=O)NCC#Cc6ccc7occ(C8CCC(=O)NC8=O)c7c6)nc5)ncc34)nc(OC(C)C)cc2n(C)c1=O (stereo not shown) [Example B88, N-(3-(3-(2,6-dioxopiperidin-3-yl)benzofuran-5-yl)prop-2-yn-1-yl)-5-(8-(7-isopropoxy-1,3-dimethyl-2-oxo-1,2-dihydro-1,6-naphthyridin-5-yl)isoquinolin-3-yl)picolinamide] | > 1000 nM | < 20% | > 80% | 1 to 9.9 nM
11 | Cc1cc2c(N3CCCc4nc(-c5ccc(C(=O)NCC#Cc6cc7c(C8CCC(=O)NC8=O)c(F)ccc7o6)nc5)ncc43)cc(C3CCOCC3)cc2n(C)c1=O (stereo not shown) [Example B90, 5-(5-(1,3-dimethyl-2-oxo-7-(tetrahydro-2H-pyran-4-yl)-1,2-dihydroquinolin-5-yl)-5,6,7,8-tetrahydropyrido[3,2-d]pyrimidin-2-yl)-N-(3-(4-(2,6-dioxopiperidin-3-yl)-5-fluorobenzo-furan-2-yl)prop-2-yn-1-yl)picolinamide] | > 1000 nM | < 20% | > 80% | < 1 nM
12 | Cc1cc2c(-c3cccc4cc(-c5ccc(C(=O)NCC#Cc6ccc7occ(C8CCC(=O)NC8=O)c7c6)nc5)ncc34)nc(N3CCOCC3)cc2n(C)c1=O (stereo not shown) [Example B92, 5-(8-(1,3-dimethyl-7-morpholino-2-oxo-1,2-dihydro-1,6-naphthyridin-5-yl)isoquinolin-3-yl)-N-(3-(3-(2,6-dioxopiperidin-3-yl)benzofuran-5-yl)prop-2-yn-1-yl)picolinamide] | 10 to 99 nM | 20 to 39% | > 80% | 1 to 9.9 nM
13 | Cc1cc2c(N3CCCc4nc(-c5ccc(C(=O)NCC#Cc6cc7c(C8CCC(=O)NC8=O)nccc7o6)nc5)ncc43)cc(C3CCOCC3)cc2n(C)c1=O (stereo not shown) [Example B94, 5-(5-(1,3-dimethyl-2-oxo-7-(tetrahydro-2H-pyran-4-yl)-1,2-dihydroquinolin-5-yl)-5,6,7,8-tetrahydropyrido[3,2-d]pyrimidin-2-yl)-N-(3-(4-(2,6-dioxopiperidin-3-yl)furo[3,2-c]pyridin-2-yl)prop-2-yn-1-yl)picolinamide] | 1 to 9.9 nM | 20 to 39% | > 80% | < 1 nM
